Columns and labels:
P388 = assay: Growth inhibition of mouse P388 cells by MTT assay; type: functional, cell-based
A549 = assay: Growth inhibition of human A549 cells by SRB assay; type: functional, cell-based
SMMC-7721 = assay: Growth inhibition of human SMMC7721 cells by MTT assay; type: functional, cell-based
HeLa = assay: Growth inhibition of human HeLa cells by MTT assay; type: functional, cell-based
HL-60 = assay: Growth inhibition of human HL60 cells by MTT assay; type: functional, cell-based
DNA = assay: Binding affinity to calf thymus DNA; type: nucleic-acid assay; conditions: Bos taurus

IC50 (P388) [µM] | IC50 (A549) [µM] | IC50 (SMMC-7721) [µM] | IC50 (HeLa) [µM] | IC50 (HL-60) [µM] | ΔTm (DNA) [°C] | Structure (SMILES)
0.71 | 7.48 | 0.88 | 13.9 | 5.21 | 6.7 | CN(C)CCN1C(=O)c2cccc3c2c(cc2[nH]c(-c4ccoc4)nc23)C1=O
3.72 | 2.16 | 1.35 | 0.21 | 0.46 | 7 | COc1ccc(-c2nc3c(cc4c5c(cccc53)C(=O)N(CCN(C)C)C4=O)[nH]2)cc1
1.1 | 17.8 | > 100 | 13.1 | 23 | 6.3 | CN(C)CCN1C(=O)c2cccc3c2c(cc2[nH]c(-c4ccc(O)cc4)nc23)C1=O
5.65 | 60.9 | 1.76 | 5.35 | 2.66 | 4.8 | CN(C)CCN1C(=O)c2cccc3c2c(cc2[nH]c(-c4ccncc4)nc23)C1=O
1.92 | 5.08 | > 100 | > 100 | 50.5 | 7.8 | COc1cc(-c2nc3c(cc4c5c(cccc53)C(=O)N(CCN(C)C)C4=O)[nH]2)ccc1O
1.07 | 0.6 | 0.22 | 5.19 | 10.4 | 13.3 | COc1ccc(-c2nc3c(cc4c5c(cccc53)C(=O)N(CCN(C)C)C4=O)[nH]2)cc1OC
2.48 | 14.7 | 1.02 | 0.52 | 4.58 | 10.5 | CCOc1ccc(-c2nc3c(cc4c5c(cccc53)C(=O)N(CCN(C)C)C4=O)[nH]2)cc1
0.16 | 8.59 | 0.93 | 0.54 | 0.58 | 8.4 | CN(C)CCN1C(=O)c2cccc3c2c(cc2[nH]c(-c4ccsc4)nc23)C1=O
2.31 | 9.97 | 1.29 | 1.16 | 1.33 | 4 | CN(C)CCN1C(=O)c2cccc3c2c(cc2[nH]c(-c4cccnc4)nc23)C1=O
4.15 | 6.67 | 3.27 | 1.34 | 0.59 | 6.9 | CN(C)CCN1C(=O)c2cccc3c2c(cc2[nH]c(-c4cccs4)nc23)C1=O
5.5 | 5.53 | 0.58 | 0.32 | 1.04 | 6.6 | Cc1ccc(-c2nc3c(cc4c5c(cccc53)C(=O)N(CCN(C)C)C4=O)[nH]2)cc1
0.95 | 9.13 | 0.27 | 0.28 | 3.28 | 7.1 | CN(C)CCN1C(=O)c2cccc3c2c(cc2[nH]c(-c4ccc(Cl)cc4)nc23)C1=O
0.86 | 7.54 | 3.36 | 0.4 | 0.86 | 7.2 | CN(C)CCN1C(=O)c2cccc3c2c(cc2[nH]c(-c4ccccc4)nc23)C1=O
0.77 | 9.33 | 3.36 | 2.71 | 0.3 | 3.8 | CN(C)CCN1C(=O)c2cccc3c2c(cc2[nH]c(-c4ccccn4)nc23)C1=O
0.21 | 0.45 | 2.99 | 3.3 | 3.03 | 5.7 | CN(C)CCN1C(=O)c2cccc3c2c(cc2[nH]c(-c4ccc[nH]4)nc23)C1=O
0.71 | 26.2 | 1.63 | 0.4 | 4.9 | 4.8 | CN(C)CCN1C(=O)c2cccc3c2c(cc2[nH]c(-c4ccc(C(F)(F)F)cc4)nc23)C1=O
1.68 | 8.5 | 2.86 | 0.25 | 1.08 | 12.1 | CN(C)CCN1C(=O)c2cccc3c2c(cc2[nH]c(-c4ccc(N(C)C)cc4)nc23)C1=O
0.65 | 7.23 | 1.3 | 1.73 | 6.24 | 6.8 | CN(C)CCN1C(=O)c2cccc3c2c(cc2[nH]c(-c4ccco4)nc23)C1=O
0.21 | 0.41 | 2.9 | 7.98 | 3.66 | 6.2 | CN(C)CCN1C(=O)c2cccc3c2c(cc2[nH]c(-c4cccn4C)nc23)C1=O

Structure (SMILES) | IC50 (P388) [µM] | IC50 (A549) [µM] | IC50 (SMMC-7721) [µM] | IC50 (HeLa) [µM] | IC50 (HL-60) [µM] | ΔTm (DNA) [°C]
CN(C)CCN1C(=O)c2cccc3cc(N)cc(c23)C1=O [AMONAFIDE] | 4.56 | 13 | 4.15 | 1.4 | 1.63 | 

Source: ChEMBL document CHEMBL1149601, “Molecular design, chemical synthesis, and biological evaluation of '4-1' pentacyclic aryl/heteroaryl-imidazonaphthalimides” (Bioorg Med Chem, 2007)
